Source: publication PMC9021288 (Nature Communications, 2022)

Tests used:
P. falciparum 3D7 = test: Parasite reduction rate (PRR) in vitro killing rate assay; format: cell-based, Plasmodium falciparum
Procedure: The antimalarial killing rate was determined by GlaxoSmithKline (GSK, Tres Cantos, Madrid, Spain) as described previously. […] The number of viable parasites was determined on day 21 and 28 by counting the wells with parasite growth.

[1] = system: P. falciparum NF54 male gametocytes; test: Dual gamete formation assay, male; format: cell-based, Plasmodium falciparum
Procedure: After a 48-h incubation, gamete formation was stimulated by a drop in temperature (from 37 °C to 26 °C), and the addition of xanthurenic acid (2.5 µM). At 20 min after induction, exflagellation was recorded by automated time-lapse microscopy. After data collection, the plate was returned to a 26 °C incubator and incubated for 24 h. Female gamete formation was assessed by live staining with a Cy3-labelled anti-Pfs25 monoclonal antibody (1:2222) and recorded by automated microscopy.

`C[C@@H](CNC(=O)[C@H](O)C(C)(C)CO)NC(=O)c1cc(F)c(F)cc1F` [MMV693183] was tested, and the “time to parasitemia below the detection limit” value (P. falciparum 3D7; 40 nM (10x IC50)) was no more than 48 h, the “Average (log parasites +1)” value (P. falciparum 3D7; 24 h) was 0.452 and the “Average (log parasites +1)” value (P. falciparum 3D7; 48 h) was 0.0. The “log (parasites +1)” value (P. falciparum 3D7; 48 h) was 0.0, the parasites (P. falciparum 3D7; 48 h) was 0 and the “Average (log parasites +1)” value (P. falciparum 3D7; 72h) was 0.0. For the same compound, the “log (parasites +1)” value (P. falciparum 3D7; 72h) was 0.0, the parasites (P. falciparum 3D7; 72h) was 0 and the “Average (log parasites +1)” value (P. falciparum 3D7; 96h) was 0.0. The “log (parasites +1)” value (P. falciparum 3D7; 96h) was 0.0, the parasites (P. falciparum 3D7; 96h) was 0 and the “Average (log parasites +1)” value (P. falciparum 3D7; 120h) was 0.0. For the same compound, the “log (parasites +1)” value (P. falciparum 3D7; 120h) was 0.0, the parasites (P. falciparum 3D7; 120h) was 0 and the IC50 [1] was 1000 nM.
